# Laboratory results from ChEMBL document CHEMBL4002634, “Benzoflavones as cholesterol esterase inhibitors: Synthesis, biological evaluation and docking studies” (Bioorg Med Chem Lett, 2017).
# Key:
# [1] = target: T1, Carboxylic ester hydrolase (Sus scrofa) (UniProt A0A286ZKB1); test: Inhibition of porcine cholesterol esterase at 1 nM using para-nitrophenyl butyrate as substrate after 5 mins in presence of sodium taurocholate by spectrophotometric method relative to control
# T1 sequence (whole entry): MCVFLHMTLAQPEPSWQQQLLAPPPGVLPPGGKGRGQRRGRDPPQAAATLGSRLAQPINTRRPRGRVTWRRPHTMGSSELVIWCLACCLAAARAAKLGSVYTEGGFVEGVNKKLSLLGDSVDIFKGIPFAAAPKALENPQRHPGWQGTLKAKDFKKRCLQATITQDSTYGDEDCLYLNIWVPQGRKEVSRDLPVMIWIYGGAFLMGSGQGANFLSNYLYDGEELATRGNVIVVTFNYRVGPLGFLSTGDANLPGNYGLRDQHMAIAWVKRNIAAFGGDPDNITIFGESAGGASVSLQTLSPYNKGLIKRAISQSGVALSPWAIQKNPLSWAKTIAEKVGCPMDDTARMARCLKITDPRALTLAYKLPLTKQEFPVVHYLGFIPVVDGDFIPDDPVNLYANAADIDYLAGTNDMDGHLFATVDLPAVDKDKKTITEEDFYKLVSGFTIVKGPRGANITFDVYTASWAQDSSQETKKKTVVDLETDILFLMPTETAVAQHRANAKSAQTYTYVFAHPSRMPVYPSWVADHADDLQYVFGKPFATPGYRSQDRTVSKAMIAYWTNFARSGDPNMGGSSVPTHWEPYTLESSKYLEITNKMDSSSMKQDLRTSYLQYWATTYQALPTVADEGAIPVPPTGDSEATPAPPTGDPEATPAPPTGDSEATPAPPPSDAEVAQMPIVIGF
# [2] = target: T1, Carboxylic ester hydrolase (Sus scrofa); test: Inhibition of porcine cholesterol esterase at 50 nM using para-nitrophenyl butyrate as substrate after 5 mins in presence of sodium taurocholate by spectrophotometric method relative to control
# [3] = target: T1, Carboxylic ester hydrolase (Sus scrofa); test: Inhibition of porcine cholesterol esterase at 25 nM using para-nitrophenyl butyrate as substrate after 5 mins in presence of sodium taurocholate by spectrophotometric method relative to control
# [4] = target: T1, Carboxylic ester hydrolase (Sus scrofa); test: Inhibition of porcine cholesterol esterase at 10 nM using para-nitrophenyl butyrate as substrate after 5 mins in presence of sodium taurocholate by spectrophotometric method relative to control
# [5] = target: T1, Carboxylic ester hydrolase (Sus scrofa); test: Inhibition of porcine cholesterol esterase at 5 nM using para-nitrophenyl butyrate as substrate after 5 mins in presence of sodium taurocholate by spectrophotometric method relative to control
# [6] = target: T2, Carboxylic ester hydrolase (Sus scrofa, UniProt A0A286ZKB1); test: Inhibition of porcine cholesterol esterase using para-nitrophenyl butyrate as substrate after 5 mins in presence of sodium taurocholate by spectrophotometric method
# T2 sequence (A0A286ZKB1 whole entry): T1 sequence (whole entry)
SMILES,inhibition [1] [%],inhibition [2] [%],inhibition [3] [%],inhibition [4] [%],inhibition [5] [%],IC50 ([6]; read-out: IC50) [nM],IC50 [6]
O=c1cc(-c2ccc([N+](=O)[O-])cc2)oc2c1ccc1ccccc12,35,70,69,68,47,37.3,
CC(=O)Oc1ccc(-c2cc(=O)c3ccc4ccccc4c3o2)cc1,21,56,46,34,28,,Not Active
O=c1cc(-c2ccc(OC(F)(F)F)cc2)oc2c1ccc1ccccc12,20,46,42,35,26,,Not Active
O=c1cc(-c2ccccc2)oc2c1ccc1ccccc12 [ALPHA-NAPHTHOFLAVONE],28,51,48,40,33,47.8,
O=c1cc(-c2ccc(I)cc2)oc2c1ccc1ccccc12,38,75,73,71,53,34.1,
O=c1cc(-c2ccc(F)cc2F)oc2c1ccc1ccccc12,51,97,91,80,66,1.43,
O=c1cc(-c2cccc(CCl)c2)oc2c1ccc1ccccc12,35,68,62,52,45,40,
O=c1cc(-c2ccc(C(F)(F)F)cc2)oc2c1ccc1ccccc12,25,56,46,35,29,,Not Active
CC(=O)Oc1cccc(-c2cc(=O)c3ccc4ccccc4c3o2)c1,23,55,47,36,27,,Not Active
O=c1cc(-c2cccc(OC(F)(F)F)c2)oc2c1ccc1ccccc12,17,44,39,32,24,,Not Active
O=c1cc(-c2c(F)cccc2F)oc2c1ccc1ccccc12,54,92,88,83,71,1.99,
O=c1cc(-c2cc(F)cc(C(F)(F)F)c2)oc2c1ccc1ccccc12,27,62,54,41,38,43,
COc1ccc(-c2cc(=O)c3ccc4ccccc4c3o2)cc1,11,31,28,22,18,,Not Active
O=c1cc(-c2cccc(F)c2)oc2c1ccc1ccccc12,50,87,83,79,64,5.24,
O=c1cc(-c2ccc(C(F)(F)F)cc2F)oc2c1ccc1ccccc12,33,67,62,51,43,39,
O=c1cc(-c2ccc(F)cc2)oc2c1ccc1ccccc12,46,79,75,73,62,20.1,
Cc1ccc(-c2cc(=O)c3ccc4ccccc4c3o2)cc1,14,34,31,24,18,,Not Active
O=c1cc(-c2ccccc2C(F)(F)F)oc2c1ccc1ccccc12,29,58,48,36,32,,Not Active
O=c1cc(-c2ccccc2F)oc2c1ccc1ccccc12,50,89,84,81,65,3.22,

SMILES,inhibition [1] [%],inhibition [2] [%],inhibition [3] [%],inhibition [4] [%],inhibition [5] [%],IC50 ([6]; read-out: IC50) [nM],IC50 [6]
O=c1cc(-c2cccc(Cl)c2Cl)oc2c1ccc1ccccc12,50,84,82,78,64,10.8,
O=c1cc(-c2ccccc2I)oc2c1ccc1ccccc12,46,80,79,78,64,16.1,
O=c1cc(-c2cccc(Cl)c2)oc2c1ccc1ccccc12,51,85,83,80,68,6.99,
O=c1cc(-c2cc(F)ccc2C(F)(F)F)oc2c1ccc1ccccc12,26,63,54,41,34,41.3,
COc1ccc(-c2cc(=O)c3ccc4ccccc4c3o2)c(OC)c1,6,28,25,21,12,,Not Active
O=c1cc(-c2c(F)cccc2C(F)(F)F)oc2c1ccc1ccccc12,31,64,59,52,48,38.9,
O=c1cc(-c2ccccc2Br)oc2c1ccc1ccccc12,51,83,81,79,66,11,
O=c1cc(-c2ccc(CCl)cc2)oc2c1ccc1ccccc12,32,66,60,48,43,39.2,
COc1ccc(-c2cc(=O)c3ccc4ccccc4c3o2)cc1OC,5,25,23,20,14,,Not Active
O=c1cc(-c2ccc(F)c(F)c2)oc2c1ccc1ccccc12,48,81,79,76,68,14.1,
O=c1cc(-c2cc([N+](=O)[O-])cc([N+](=O)[O-])c2)oc2c1ccc1ccccc12,41,76,75,72,54,30,
O=c1cc(-c2ccc(F)c(C(F)(F)F)c2)oc2c1ccc1ccccc12,21,63,55,43,34,43,
O=c1cc(-c2ccc(F)cc2C(F)(F)F)oc2c1ccc1ccccc12,28,63,55,44,38,39.1,
O=c1cc(-c2cc(F)ccc2F)oc2c1ccc1ccccc12,49,86,84,79,65,6.81,
O=c1cc(-c2cccc([N+](=O)[O-])c2)oc2c1ccc1ccccc12,36,78,75,71,51,25.1,
O=c1cc(-c2ccc(Br)cc2)oc2c1ccc1ccccc12,40,77,76,74,59,28.5,
CN(C)c1ccc(-c2cc(=O)c3ccc4ccccc4c3o2)cc1,9,23,21,18,12,,Not Active
O=c1cc(-c2cccc(Br)c2)oc2c1ccc1ccccc12,43,78,76,73,57,26.1,
O=c1cc(-c2cc(C(F)(F)F)cc(C(F)(F)F)c2)oc2c1ccc1ccccc12,21,54,42,34,28,,Not Active
